Test results as given in patent US11878956B2, “Metal salts and uses thereof” (Inspirna, Inc., priority 2019, dated 2024).
Like-named read-outs stand apart in the source and are kept apart here.

Experiments:
[1] = cited from earlier work
[2] = cited from earlier work; remark: listed apart in the source
[3] = system: ApoE; assay: ApoE gene expression induction in cancer cells; format: cell-based
[4] = biological target: human ether-à-go-go-related gene (hERG) channel (Homo sapiens, UniProt Q12809); assay: in vitro hERG assay; format: cell-based
[5] = biological target: CYP3A4 (Homo sapiens, UniProt P08684); assay: in vitro metabolism by CYP isoforms; format: in vitro ADME
[6] = system: endothelial recruitment; assay: inhibition of endothelial recruitment in vitro; format: cell-based
[7] = biological target: 2C9 (Homo sapiens, UniProt P11712); assay: CYP inhibition in vitro; format: in vitro ADME
[8] = system: CYP3A; assay: CYP3A time-dependent inhibition in vitro; format: in vitro ADME; settings: testosterone as the substrate
[9] = neurobehavioral FOB and respiratory evaluations in rats; format: in vivo
[10] = biological target: 2C19 (Homo sapiens, UniProt P33261); assay: CYP inhibition in vitro; format: in vitro ADME
[11] = system: CYP1A2; assay: CYP induction
[12] = system: melanoma, glioblastoma, TNBC, ovarian cancer, and lung cancer; assay: syngeneic and human xenograft mouse tumor models, primary tumor growth; format: in vivo
[13] = oral PK in Sprague-Dawley rats; format: in vivo
[14] = biological target: P-glucoprotein (P-gp) (Homo sapiens, UniProt P08183); assay: efflux transporter inhibition in vitro; format: in vitro ADME
[15] = initial solubility assessment in 12 solvents/solvent mixtures; format: physicochemical; settings: amorphous Compound 1, 12 solvents/solvent mixtures
Protocol: An initial solubility assessment was conducted in 12 solvents/solvent mixtures using amorphous Compound 1. […] Salt screening by cooling, anti-solvent addition, maturation, liquid assisted grinding, neat grinding and evaporation were all investigated. Gums isolated were subjected to heat/cool maturation cycles (room temperature/50° C.), sonication, prolonged storage under vacuum, prolonged storage at 40° C./75% RH, trituration with anti-solvent and liquid assisted grinding (LAG) with water. From extensive salt screening, eight hits were obtained. Amorphous hits with a high glass transition temperature (Tg) were identified from zinc chloride, naphthalene-2-sulfonic acid, 1,5-naphthalene disulfonic acid, and ethane sulfonic acid. One crystalline hit was identified from ethane sulfonic acid. Poorly crystalline material was isolated from calcium hydroxide, magnesium hydroxide and aluminum hydroxide.

[16] = clinical safety in subjects treated with Compound 1; format: in vivo
[17] = biological target: T1, 1A1 (Homo sapiens, UniProt P04798); assay: CYP inhibition in vitro; format: in vitro ADME
T1 sequence (P04798 1-512): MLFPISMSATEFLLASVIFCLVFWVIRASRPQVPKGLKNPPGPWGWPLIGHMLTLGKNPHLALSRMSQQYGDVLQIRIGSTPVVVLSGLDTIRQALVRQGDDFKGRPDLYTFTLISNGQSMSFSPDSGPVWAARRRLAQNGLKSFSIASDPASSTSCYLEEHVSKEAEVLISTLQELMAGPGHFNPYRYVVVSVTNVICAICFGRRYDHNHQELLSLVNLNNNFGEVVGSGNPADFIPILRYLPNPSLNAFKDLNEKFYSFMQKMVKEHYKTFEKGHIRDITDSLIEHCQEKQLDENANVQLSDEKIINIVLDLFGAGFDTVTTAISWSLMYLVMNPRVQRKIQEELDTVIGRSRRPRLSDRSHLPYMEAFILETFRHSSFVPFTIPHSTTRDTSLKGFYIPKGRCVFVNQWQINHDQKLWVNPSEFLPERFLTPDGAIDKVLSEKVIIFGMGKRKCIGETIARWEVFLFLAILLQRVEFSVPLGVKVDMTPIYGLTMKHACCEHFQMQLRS

[18] = animal / pre-clinical toxicology studies; format: in vivo
[19] = biological target: T2, 2A6 (Homo sapiens, UniProt P11509); assay: CYP inhibition in vitro; format: in vitro ADME
T2 sequence (P11509 1-494): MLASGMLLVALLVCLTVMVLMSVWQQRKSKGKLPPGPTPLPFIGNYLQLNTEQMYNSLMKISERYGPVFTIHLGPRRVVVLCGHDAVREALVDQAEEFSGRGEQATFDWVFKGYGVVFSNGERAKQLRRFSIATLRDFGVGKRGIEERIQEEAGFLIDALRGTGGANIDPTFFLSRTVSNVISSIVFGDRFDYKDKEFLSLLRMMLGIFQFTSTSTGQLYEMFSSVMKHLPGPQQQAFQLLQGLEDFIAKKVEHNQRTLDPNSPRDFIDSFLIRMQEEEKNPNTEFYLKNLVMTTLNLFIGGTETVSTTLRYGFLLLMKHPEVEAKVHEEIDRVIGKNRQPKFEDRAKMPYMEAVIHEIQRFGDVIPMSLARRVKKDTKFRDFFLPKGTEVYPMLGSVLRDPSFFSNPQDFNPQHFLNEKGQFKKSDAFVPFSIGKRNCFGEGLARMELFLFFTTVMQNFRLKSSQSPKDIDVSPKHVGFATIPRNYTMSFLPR

[20] = system: CYP2E1, CYP2C9, CYP2C19, and possibly CYP2J2; assay: in vitro metabolism by CYP isoforms (other substrates); format: in vitro ADME
[21] = oral PK in CD-1 mice; format: in vivo
[22] = system: CYP3A; assay: CYP induction in cryopreserved hepatocytes; format: in vitro ADME; settings: primary cultures of cryopreserved hepatocytes (2 donors)
[23] = system: ApoE; assay: ApoE gene expression induction in hPBMCs; format: cell-based, human
[24] = biological target: 2E1 (Homo sapiens, UniProt P05181); assay: CYP inhibition in vitro; format: in vitro ADME
[25] = biological target: 2D6 (Homo sapiens, UniProt P10635); assay: CYP inhibition in vitro; format: in vitro ADME
[26] = oral PK in Cynomolgus monkeys; format: in vivo
[27] = biological target: 3A4 (Homo sapiens, UniProt P08684); assay: CYP inhibition in vitro; format: in vitro ADME
[28] = system: CYP2B6; assay: CYP induction in cryopreserved hepatocytes; format: in vitro ADME; settings: 1 concentration in 1/3 donors
[29] = ECG and heart rate in dogs (safety pharmacology); format: in vivo
[30] = oral PK in male Beagle dogs; format: in vivo
[31] = stability of salts of Compound 1 during processing and formulation; settings: for stability of strong acid salts: readily undergo apparent esterification with alcoholic solvents; for stability towards excipients and/or components of a formulation: salts react with excipients and/or components of a formulation
[32] = Table 6, counterion sources, second set Study 3
[33] = Table 5, counterion sources, first set Study 3

2C9, sequence (P11712 whole entry): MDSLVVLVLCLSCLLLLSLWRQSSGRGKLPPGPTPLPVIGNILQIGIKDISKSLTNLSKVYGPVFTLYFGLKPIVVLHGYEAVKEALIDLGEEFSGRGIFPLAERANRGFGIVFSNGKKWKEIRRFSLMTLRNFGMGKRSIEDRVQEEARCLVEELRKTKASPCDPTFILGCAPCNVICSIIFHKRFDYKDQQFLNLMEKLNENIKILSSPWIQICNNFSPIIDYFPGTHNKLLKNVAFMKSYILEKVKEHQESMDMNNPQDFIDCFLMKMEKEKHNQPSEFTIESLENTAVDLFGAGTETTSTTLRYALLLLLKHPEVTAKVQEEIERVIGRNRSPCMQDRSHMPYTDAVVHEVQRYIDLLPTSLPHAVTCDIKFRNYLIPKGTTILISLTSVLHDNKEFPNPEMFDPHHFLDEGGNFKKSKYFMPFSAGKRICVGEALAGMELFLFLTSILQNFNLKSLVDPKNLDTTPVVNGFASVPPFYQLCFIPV
3A4, sequence (P08684 whole entry): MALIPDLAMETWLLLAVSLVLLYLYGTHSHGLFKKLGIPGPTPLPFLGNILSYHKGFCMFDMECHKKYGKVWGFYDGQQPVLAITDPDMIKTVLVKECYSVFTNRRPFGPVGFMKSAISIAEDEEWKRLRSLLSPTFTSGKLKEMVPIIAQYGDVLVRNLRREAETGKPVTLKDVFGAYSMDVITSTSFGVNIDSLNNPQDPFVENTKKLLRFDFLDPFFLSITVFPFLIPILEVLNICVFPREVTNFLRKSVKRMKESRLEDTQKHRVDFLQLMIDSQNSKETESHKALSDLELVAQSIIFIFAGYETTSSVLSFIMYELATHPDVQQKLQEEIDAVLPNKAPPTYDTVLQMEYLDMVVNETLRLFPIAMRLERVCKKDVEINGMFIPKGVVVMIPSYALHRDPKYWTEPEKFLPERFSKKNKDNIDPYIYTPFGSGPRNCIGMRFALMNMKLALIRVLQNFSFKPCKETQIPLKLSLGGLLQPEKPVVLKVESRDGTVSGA
CYP3A4, sequence (P08684 whole entry, canonical isoform): as the sequence (P08684 whole entry) above
2C19, sequence (P33261 whole entry): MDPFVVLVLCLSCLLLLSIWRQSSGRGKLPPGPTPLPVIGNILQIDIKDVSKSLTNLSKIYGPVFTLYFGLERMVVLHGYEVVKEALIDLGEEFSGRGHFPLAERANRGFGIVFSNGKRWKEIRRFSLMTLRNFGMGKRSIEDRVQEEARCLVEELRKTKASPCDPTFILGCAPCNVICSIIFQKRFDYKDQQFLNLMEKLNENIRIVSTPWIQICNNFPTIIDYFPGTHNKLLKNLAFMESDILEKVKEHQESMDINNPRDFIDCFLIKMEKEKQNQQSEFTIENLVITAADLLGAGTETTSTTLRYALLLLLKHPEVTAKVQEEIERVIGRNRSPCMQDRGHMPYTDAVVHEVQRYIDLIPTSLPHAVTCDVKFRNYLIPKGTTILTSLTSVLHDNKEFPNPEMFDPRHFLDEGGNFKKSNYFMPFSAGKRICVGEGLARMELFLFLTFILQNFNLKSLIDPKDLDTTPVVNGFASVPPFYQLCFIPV
2D6, sequence (P10635 whole entry): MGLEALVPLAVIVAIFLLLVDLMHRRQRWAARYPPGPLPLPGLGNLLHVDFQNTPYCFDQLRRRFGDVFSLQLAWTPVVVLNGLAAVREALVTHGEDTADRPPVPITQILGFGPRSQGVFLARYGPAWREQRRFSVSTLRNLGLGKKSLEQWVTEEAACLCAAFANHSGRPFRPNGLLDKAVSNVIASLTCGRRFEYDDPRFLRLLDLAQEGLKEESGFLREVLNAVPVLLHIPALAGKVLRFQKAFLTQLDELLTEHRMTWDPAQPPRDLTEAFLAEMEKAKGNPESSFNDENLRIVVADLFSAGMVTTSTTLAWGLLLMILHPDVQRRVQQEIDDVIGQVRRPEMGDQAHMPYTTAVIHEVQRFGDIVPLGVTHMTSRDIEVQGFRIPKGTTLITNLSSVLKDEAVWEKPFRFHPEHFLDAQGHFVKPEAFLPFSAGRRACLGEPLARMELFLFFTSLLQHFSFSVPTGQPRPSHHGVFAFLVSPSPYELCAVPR
2E1, sequence (P05181 whole entry): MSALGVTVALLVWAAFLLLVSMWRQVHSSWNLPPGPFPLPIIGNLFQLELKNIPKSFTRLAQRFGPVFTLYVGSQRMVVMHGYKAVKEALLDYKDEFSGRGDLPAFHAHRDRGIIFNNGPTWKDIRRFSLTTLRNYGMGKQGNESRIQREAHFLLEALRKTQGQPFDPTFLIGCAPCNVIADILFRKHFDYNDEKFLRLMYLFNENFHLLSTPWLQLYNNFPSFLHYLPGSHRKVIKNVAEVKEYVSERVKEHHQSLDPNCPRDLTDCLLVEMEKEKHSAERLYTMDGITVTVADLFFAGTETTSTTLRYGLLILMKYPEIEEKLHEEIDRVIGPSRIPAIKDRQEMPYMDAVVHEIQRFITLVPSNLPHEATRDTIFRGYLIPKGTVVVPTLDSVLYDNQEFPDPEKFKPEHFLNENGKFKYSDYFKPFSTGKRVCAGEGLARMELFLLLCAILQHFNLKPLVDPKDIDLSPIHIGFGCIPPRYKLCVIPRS
human ether-à-go-go-related gene (hERG) channel, sequence (Q12809 whole entry, canonical isoform): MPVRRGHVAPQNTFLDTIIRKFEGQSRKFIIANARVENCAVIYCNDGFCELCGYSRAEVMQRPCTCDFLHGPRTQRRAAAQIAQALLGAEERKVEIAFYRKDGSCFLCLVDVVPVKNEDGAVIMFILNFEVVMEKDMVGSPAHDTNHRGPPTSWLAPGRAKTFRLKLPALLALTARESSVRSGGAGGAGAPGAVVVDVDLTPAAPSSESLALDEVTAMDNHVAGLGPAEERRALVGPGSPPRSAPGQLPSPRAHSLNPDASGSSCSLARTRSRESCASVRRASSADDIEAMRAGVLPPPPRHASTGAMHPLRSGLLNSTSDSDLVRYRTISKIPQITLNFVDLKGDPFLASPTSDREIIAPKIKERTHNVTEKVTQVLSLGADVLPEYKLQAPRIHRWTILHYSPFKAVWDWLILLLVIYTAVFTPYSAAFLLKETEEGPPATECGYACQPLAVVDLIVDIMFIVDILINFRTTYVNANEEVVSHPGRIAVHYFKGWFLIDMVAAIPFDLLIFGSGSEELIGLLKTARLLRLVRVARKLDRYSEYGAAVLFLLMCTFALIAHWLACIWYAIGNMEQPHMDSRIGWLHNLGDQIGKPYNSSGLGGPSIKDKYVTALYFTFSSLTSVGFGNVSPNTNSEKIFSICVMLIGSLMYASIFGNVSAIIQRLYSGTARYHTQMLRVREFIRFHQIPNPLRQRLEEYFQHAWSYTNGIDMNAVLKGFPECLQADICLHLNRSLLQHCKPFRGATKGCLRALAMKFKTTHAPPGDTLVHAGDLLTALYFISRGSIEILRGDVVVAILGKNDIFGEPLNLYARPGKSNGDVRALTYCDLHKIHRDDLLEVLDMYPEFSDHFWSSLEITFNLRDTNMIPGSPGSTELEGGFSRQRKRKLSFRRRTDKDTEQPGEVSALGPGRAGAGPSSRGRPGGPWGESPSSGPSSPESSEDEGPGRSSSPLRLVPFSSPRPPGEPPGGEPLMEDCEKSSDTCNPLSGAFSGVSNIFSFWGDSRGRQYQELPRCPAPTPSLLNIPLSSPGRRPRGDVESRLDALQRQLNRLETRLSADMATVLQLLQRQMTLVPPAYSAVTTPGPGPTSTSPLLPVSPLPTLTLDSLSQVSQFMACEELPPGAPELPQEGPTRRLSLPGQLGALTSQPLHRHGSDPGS
P-glucoprotein (P-gp), sequence (P08183 whole entry): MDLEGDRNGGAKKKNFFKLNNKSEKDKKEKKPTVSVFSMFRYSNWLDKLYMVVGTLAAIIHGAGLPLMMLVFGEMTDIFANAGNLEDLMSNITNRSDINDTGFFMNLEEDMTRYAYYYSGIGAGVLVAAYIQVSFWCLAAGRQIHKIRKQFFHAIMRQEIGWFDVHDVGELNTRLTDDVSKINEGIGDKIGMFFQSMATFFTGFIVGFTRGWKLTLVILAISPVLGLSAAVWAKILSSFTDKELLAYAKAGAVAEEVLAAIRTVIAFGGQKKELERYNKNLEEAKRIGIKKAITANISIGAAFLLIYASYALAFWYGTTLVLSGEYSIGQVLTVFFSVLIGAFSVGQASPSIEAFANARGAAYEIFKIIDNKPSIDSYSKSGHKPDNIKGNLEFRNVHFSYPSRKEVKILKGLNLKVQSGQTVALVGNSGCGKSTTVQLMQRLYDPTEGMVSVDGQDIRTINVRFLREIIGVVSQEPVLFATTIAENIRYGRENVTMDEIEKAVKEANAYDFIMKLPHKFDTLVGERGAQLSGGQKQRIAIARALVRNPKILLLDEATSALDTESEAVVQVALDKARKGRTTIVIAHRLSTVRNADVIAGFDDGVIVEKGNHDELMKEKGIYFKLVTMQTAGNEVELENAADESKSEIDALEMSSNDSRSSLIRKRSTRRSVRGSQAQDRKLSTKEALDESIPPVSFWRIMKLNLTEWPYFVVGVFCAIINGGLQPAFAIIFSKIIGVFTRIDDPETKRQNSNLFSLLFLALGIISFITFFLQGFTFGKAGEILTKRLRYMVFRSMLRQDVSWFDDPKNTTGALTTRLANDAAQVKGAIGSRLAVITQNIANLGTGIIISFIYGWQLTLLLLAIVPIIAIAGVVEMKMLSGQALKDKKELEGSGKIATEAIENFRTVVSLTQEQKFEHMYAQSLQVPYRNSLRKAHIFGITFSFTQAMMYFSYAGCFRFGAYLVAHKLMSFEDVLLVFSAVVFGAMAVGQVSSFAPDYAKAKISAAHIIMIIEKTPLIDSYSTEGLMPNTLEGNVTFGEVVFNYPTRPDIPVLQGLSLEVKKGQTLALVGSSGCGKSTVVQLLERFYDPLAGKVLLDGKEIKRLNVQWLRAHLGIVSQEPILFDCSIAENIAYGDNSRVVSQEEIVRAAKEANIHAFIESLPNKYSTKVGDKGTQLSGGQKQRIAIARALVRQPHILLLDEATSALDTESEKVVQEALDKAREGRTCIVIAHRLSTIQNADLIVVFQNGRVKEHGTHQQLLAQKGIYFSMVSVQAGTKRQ

## OCCN1CCCC1 [1-(2-Hydroxyethyl)-pyrrolidine]
[1]; [32]
  pKa1: 9.4

## [NH2][Pt]1([NH2])[O]C(=O)C2(CCC2)C(=O)[O]1 [Carboplatin, platinum, diamine[1,1-cyclobutanedicarboxylato(2-)-O,O′]-(SP-4-2)]
[2]; 1% solution
  pH of a 1% solution: 5-7
[2]; ethanol, acetone, dimethylacetamide
  solubility in ethanol, acetone, and dimethylacetamide: virtually insoluble
[2]; water
  solubility in water: approximately 14 mg/mL

## C[N+](C)(C)CCO [Choline]
[1]; [33]
  pKa1: >11.0

## C[C@H](CCOc1cccc(CC(=O)O)c1)N(Cc1cccc(C(F)(F)F)c1Cl)CC(c1ccccc1)c1ccccc1 [Compound 1, 2-[3-[(3R)-3-[[2-chloro-3-(trifluoromethyl)phenyl]methyl-(2,2-diphenylethyl)amino]butoxy]phenyl]acetic acid]
[3]
  EC50: 385 nM
[3]; compared to control cells
  induction of ApoE gene expression: 3 fold
[4]
  hERG channel conductance: significant increase, but not inhibition
[5]
  metabolism by CYP3A4: metabolized predominantly
[6]
  inhibition of endothelial recruitment: ~50%
[7]
  inhibition of 2C9: very weakly inhibited
[8]
  CYP3A time-dependent inhibition (TDI): time-dependent inhibition (TDI) was demonstrated
[9]
  neurobehavioral FOB or respiratory evaluations: no adverse effects
[10]
  inhibition of 2C19: very weakly inhibited
[11]
  induction of CYP1A2: did not induce
[12]; 25-40 mg/kg/day PO
  exposures at minimum efficacious doses: 10,000-50,000 ng-h/mL
[12]; administered orally (PO), tumor growth studies
  minimum efficacious doses: 25 to 40 mg/kg/day
[13]; female rats
  mean apparent oral t %: 6.5 h
[13]; rats
  clearance, females versus males: cleared at a lower rate in female rats compared to males
[14]
  inhibition of P-gp: does not inhibit
[15]
  solubility in solvents/solvent mixtures: Dissolution was observed in most of the samples
[16]; Compound 1 single agent therapy
  dose limiting toxicity on single agent therapy: DLT of Grade 4 neutropenia
[16]; subjects treated with Compound 1
  hyperlipidemia in treated subjects: hyperlipidemia has been observed
[17]
  inhibition of 1A1: very weakly inhibited
[18]; animal toxicology studies
  potential risks based on animal toxicology studies: elevations in serum cholesterol and TG, neutropenia/leukopenia, nausea and/or vomiting, elevations in liver enzymes, development or worsening of cataracts, cardiac rhythm disturbances and/or reduced cardiac function, harderian gland adenocarcinoma, and/or generalized edema
[18]; pre-clinical toxicity studies
  liver function in pre-clinical toxicity studies: Liver function abnormalities have been observed
[19]
  inhibition of 2A6: very weakly inhibited
[20]
  substrate for other CYP isoforms: also a substrate
[21]
  food effect: plasma concentrations fed state: > 2 fold
[22]
  induction of CYP3A: Induction of CYP3A by Compound 1 was demonstrated
[23]; Homo sapiens
  EC50: 271 nM
[23]; compared to control cells
  induction of ApoE gene expression: up to 40 fold
[24]
  inhibition of 2E1: very weakly inhibited
[25]
  inhibition of 2D6: very weakly inhibited
[26]
  Mean oral t %: 5.5 to 8 h
[27]
  inhibition of 3A4: very weakly inhibited
[28]
  induction of CYP2B6: > 2 fold
[29]
  effects on qualitative ECG parameters (PR or QTc intervals or QRS duration): no Compound 1-related effects
[29]; Day 1 post-dose interval, significant in females at 150 (stepped down to 100) mg/kg/day
  mean heart rate: dose related decrease
[30]
  mean apparent oral t %: 5 to 6.7 h

## OCCNCCO [Diethanolamine]
[1]; [33]
  pKa1: 9.5

## O=S(=O)(O)CCS(=O)(=O)O [Ethane-1,2-disulfonic acid]
[1]; [33]
  pKa1: −2.1

## CCS(=O)(=O)O [Ethanesulfonic acid]
[1]; [33]
  pKa1: −1.6

## O=C(O)CNC(=O)c1ccccc1 [Hippuric acid]
[1]; [32]
  pKa1: 3.6

## N[C@@H](Cc1c[nH]cn1)C(=O)O [Histidine]
[1]; [32]
  pKa1: 9.2

## N=C(N)NCCC[C@H](N)C(=O)O [L-Arginine]
[1]; [33]
  pKa1: 9.0

## NCCCC[C@H](N)C(=O)O [L-Lysine]
[1]; [32]
  pKa1: 9.2

## O=S(=O)(O)c1ccc2ccccc2c1 [Naphthalene-2-sulfonic acid]
[1]; [33]
  pKa1: 0.17

## O=[N+]([O-])O [Nitric acid]
[1]; [33]
  pKa1: −1.3

## O=C(O)c1cc2ccccc2c(Cc2c(O)c(C(=O)O)cc3ccccc23)c1O [Pamoic acid]
[1]; [32]
  pKa1: 2.5

## O=S(=O)([O-])CCS(=O)(=O)[O-].[Na+].[Na+] [Sodium edisylate]
[1]; [32]
  pKa1: −2.1

## O=S(=O)([O-])CCO.[Na+] [Sodium isethionate]
[1]; [32]
  pKa1: 1.7

## N#CS [Thiocyanic acid]
[1]; [32]
  pKa1: −1.3

## CS(=O)(=O)O [methanesulfonic acid]
[31]
  stability of strong acid salts: prone to instability
  stability towards excipients and/or components of a formulation: unstable

## H2SO4 [Compound H2SO4]
[31]
  stability of strong acid salts: prone to instability
  stability towards excipients and/or components of a formulation: unstable
